Measurements reported in patent US7932262B2 (Novartis AG, priority 2006, dated 2011).
pEC50, pIC50: −log10 of the molar value.

How the values were obtained:
PC-3 cells = assay: Cell Proliferation Assay (Cell Titer Glo), PC-3 cell line; format: cell-based; details: Homo sapiens, PC-3, cell proliferation, PC3 cells; read-out: CPEC50 PC3
In short: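 PC-3 cells, 1000 cells/well, left to adhere 3-5 h, then exposed for 3 days at 37° C to compounds as 1:3 serial dilutions from 500× DMSO stocks diluted in growth medium. Medium then replaced with fresh medium and viability read by Cell Titer Glo luminescence.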

PDK1 kinase = molecular target: T1, PDK1 kinase (Homo sapiens, UniProt O15530); assay: PDK1 Kinase Alpha Screen Assay; format: biochemical; details: PDK1 Kinase Alpha Screen Assay; read-out: PDK1 IC50
T1 sequence (O15530 1-556): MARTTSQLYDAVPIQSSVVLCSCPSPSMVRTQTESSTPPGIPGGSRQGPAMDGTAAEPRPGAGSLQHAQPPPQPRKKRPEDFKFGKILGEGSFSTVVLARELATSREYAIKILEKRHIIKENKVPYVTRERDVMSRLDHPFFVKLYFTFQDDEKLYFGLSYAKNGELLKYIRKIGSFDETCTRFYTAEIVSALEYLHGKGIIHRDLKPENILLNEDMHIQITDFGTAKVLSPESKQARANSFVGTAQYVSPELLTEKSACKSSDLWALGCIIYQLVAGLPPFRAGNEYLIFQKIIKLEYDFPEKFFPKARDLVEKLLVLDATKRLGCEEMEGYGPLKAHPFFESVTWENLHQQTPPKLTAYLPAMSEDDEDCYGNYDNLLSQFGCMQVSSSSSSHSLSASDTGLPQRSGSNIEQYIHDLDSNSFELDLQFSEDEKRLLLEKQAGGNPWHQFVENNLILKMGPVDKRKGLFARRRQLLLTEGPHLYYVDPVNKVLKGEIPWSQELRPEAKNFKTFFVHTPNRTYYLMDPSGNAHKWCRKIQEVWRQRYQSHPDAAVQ
In short: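 PDK1 phosphorylated 50 nM biotinylated PDK1-4 peptide with 10 uM ATP in Tris pH 7.5, 10 mM MgCl2, 2 mM DTT, 2.5% DMSO for 3-18 hours. After EDTA stop, phosphopeptide was detected by AlphaScreen using phospho-(Ser/Thr) PKA substrate antibody with protein A/streptavidin beads, read after overnight incubation.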

A2780 cells = assay: Cell Proliferation Assay (Cell Titer Glo), A2780; format: cell-based; details: Homo sapiens; cell proliferation, A2780 cells; read-out: CPEC50 A2780
In short: (§1)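 Cells seeded at 1000/well, allowed to adhere 3-5 h, then exposed to DMSO-dissolved compounds for 3 days at 37° C., 5% CO2. Medium replaced before Cell Titer Glo addition; luminescence read after 10 min.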

PC3MM cells = assay: Cell Proliferation Assay (Cell Titer Glo), PC3MM; format: cell-based; details: cell proliferation, PC3MM cells; read-out: CPEC50 PC3MM
In short: as §1

Row | SMILES | pEC50 (PC-3 cells) | pIC50 (PDK1 kinase) | pEC50 (A2780 cells) | pEC50 (PC3MM cells)
1 | NS(=O)(=O)c1ccc(Nc2ncc3cccc(O[C@@H]4CN5CCC4CC5)c3n2)cc1 [Compound 744, (S)-4-(8-(quinuclidin-3-yloxy)quinazolin-2-ylamino)benzenesulfonamide] | > 5.30 | > 5.30 | > 5.30 | > 5.30
2 | CN1C2CCC1CC(Oc1cccc3cnc(Nc4ccc(S(N)(=O)=O)cc4)nc13)C2 (stereo not shown) [Compound 749, 4-(8-(8-methyl-8-azabicyclo[3.2.1]octan-3-yloxy)quinazolin-2-ylamino)benzenesulfonamide] | > 5.30 | > 5.30 | > 5.30 | > 5.30
3 | O=S(=O)(NC1CC1)c1ccc(Nc2ncc3cccc(OC4CCNCC4)c3n2)cc1 [Compound 781, N-cyclopropyl-4-(8-(piperidin-4-yloxy)quinazolin-2-ylamino)benzenesulfonamide] | > 5.30 | > 5.30 | > 5.30 | > 5.30
4 | CC(C)N1CCC(Oc2ccc3cnc(Nc4ccc(S(N)(=O)=O)cc4)nc3c2)CC1 [Compound 794, 4-(7-(1-isopropylpiperidin-4-yloxy)quinazolin-2-ylamino)benzenesulfonamide] | > 5.30 | > 5.30 | > 5.30 | > 5.30
5 | CC(C)N1CCC(c2c(O)ccc3cnc(Nc4ccc(S(N)(=O)=O)cc4)nc23)CC1 [Compound 795, 4-(7-hydroxy-8-(1-isopropylpiperidin-4-yl)quinazolin-2-ylamino)benzenesulfonamide] | > 5.30 | > 5.30 | > 5.30 | > 5.30

Next, values leading:

Row | pEC50 (PC-3 cells) | pIC50 (PDK1 kinase) | pEC50 (A2780 cells) | pEC50 (PC3MM cells) | SMILES
6 | > 5.30 | > 5.30 | > 5.30 | > 5.30 | NS(=O)(=O)c1ccc(Nc2ncc3cccc(OC4CCNCC4)c3n2)cc1 [Compound 718, 4-(8-(piperidin-4-yloxy)quinazolin-2-ylamino)benzenesulfonamide]
7 | > 5.30 | > 5.30 | > 5.30 | > 5.30 | CC(C)N1CCC(Oc2cccc3cnc(Nc4ccc(S(N)(=O)=O)cc4)nc23)CC1 [Compound 725, 4-(8-(1-isopropylpiperidin-4-yloxy)quinazolin-2-ylamino)benzenesulfonamide]
8 | > 5.30 | > 5.30 | > 5.30 | > 5.30 | NS(=O)(=O)c1ccc(Nc2ncc3ccc(OC4CCNCC4)cc3n2)cc1 [Compound 750, 4-(7-(piperidin-4-yloxy)quinazolin-2-ylamino)benzenesulfonamide]
9 | > 5.30 | > 5.30 | > 5.30 | > 5.30 | CN1CCC(Oc2ccc3cnc(Nc4ccc(S(N)(=O)=O)cc4)nc3c2)CC1 [Compound 763, 4-(7-(1-methylpiperidin-4-yloxy)quinazolin-2-ylamino)benzenesulfonamide]
10 | > 5.30 | > 5.30 | > 5.30 | > 5.30 | O=S(=O)(c1ccc(Nc2ncc3cccc(OC4CCNCC4)c3n2)cc1)N1CCOCC1 [Compound 771, N-(4-(morpholinosulfonyl)phenyl)-8-(piperidin-4-yloxy)quinazolin-2-amine]
11 | > 5.30 | > 5.30 | > 5.30 | > 5.30 | CC(C)N1CCC(Oc2cccc3cnc(Nc4ccc(S(=O)(=O)N5CCOCC5)cc4)nc23)CC1 [Compound 772, 8-(1-isopropylpiperidin-4-yloxy)-N-(4-(morpholinosulfonyl)-phenyl)quinazolin-2-amine]
12 | > 5.30 | > 5.30 | > 5.30 | > 5.30 | CC(C)NS(=O)(=O)c1ccc(Nc2ncc3cccc(OC4CCNCC4)c3n2)cc1 [Compound 779, N-isopropyl-4-(8-(piperidin-4-yloxy)quinazolin-2-ylamino)benzenesulfonamide]
13 | > 5.30 | > 5.30 | > 5.30 | > 5.30 | COCCNS(=O)(=O)c1ccc(Nc2ncc3cccc(OC4CCNCC4)c3n2)cc1 [Compound 780, N-(2-methoxyethyl)-4-(8-(piperidin-4-yloxy)quinazolin-2-ylamino)benzenesulfonamide]
